Assay results as given in patent US6812377B2, “Genetic engineering of syringyl-enriched lignin in plants” (Board of Control of Michigan Technological University, priority 2000, dated 2004).

Legend:
[1] = target: T1, PtCAD (recombinant coniferyl alcohol dehydrogenase, GenBank AF217957, C-terminal His tag, expressed in E. coli BL21(DE3)) (Populus tremuloides, UniProt Q9M632); assay: Inhibition kinetics of PtCAD: PtCAD-mediated reduction of sinapaldehyde in the presence of coniferaldehyde, HPLC-UV/MS (FIG. 6); type: biochemical, Populus tremuloides (quaking aspen); conditions: coniferaldehyde (1 to 5 μM) as inhibitor of PtCAD-mediated reduction of sinapaldehyde (1 to 200 μM); 500 μM NADPH; 1.2 μg purified recombinant PtCAD; pH 8.0; 4 min; 30° C.; read-out: apparent inhibition constant (Ki)
T1 sequence (Q9M632 1-357): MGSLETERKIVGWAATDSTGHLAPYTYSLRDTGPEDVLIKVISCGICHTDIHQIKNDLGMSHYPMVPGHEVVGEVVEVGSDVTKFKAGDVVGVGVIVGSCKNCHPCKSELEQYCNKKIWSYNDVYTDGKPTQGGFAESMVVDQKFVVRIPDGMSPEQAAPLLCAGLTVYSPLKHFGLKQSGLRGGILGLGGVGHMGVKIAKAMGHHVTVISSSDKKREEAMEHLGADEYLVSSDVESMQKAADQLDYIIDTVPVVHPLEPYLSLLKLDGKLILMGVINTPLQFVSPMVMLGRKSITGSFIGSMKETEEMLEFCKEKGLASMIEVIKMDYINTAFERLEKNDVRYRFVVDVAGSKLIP
Source text: FIG. 6 illustrates inhibition kinetics of PtCAD and PtSAD;
A guaiacyl pathway gene encoding coniferyl alcohol dehydrogenase (CAD, FIG. 1) from Populus tremuloides (GenBank #AF217957) was first cloned. This cDNA was designated as PtCAD (GenBank #AF217957). E. coli-expressed recombinant PtCAD protein was characterized for its catalytic activity with coniferaldehyde and sinapaldehyde. Because monolignol biosynthetic pathway intermediates are present together in lignifying tissues (Osakabe et al., 1999; Li et al. 2000), the PtCAD enzyme activity with a mixture of coniferaldehyde and sinapaldehyde was assayed. As shown in FIG. 5 (a) and (c), the reaction mixture was separated by HPLC after the enzyme reaction. […] Thus, PtCAD has a specific catalytic reaction function with coniferaldehyde for the biosynthesis of guaiacyl monolignol, coniferyl alcohol (FIG. 1). […]
For normal and inhibition kinetic analyses, the reaction time was 4 min and pH was 8.0 for PtCAD (1.2 μg of purified recombinant protein) and 7.0 for PtSAD (0.1 μg). […] All reactions were terminated by the addition of 10 μL of 6 N HCI (to bring the pH to 2) and 500 ng of internal standard o-coumaric acid and analyzed by HPLC-UV/MS. […]

[2] = target: recombinant PtCAD protein (Populus tremuloides, UniProt Q9M632); assay: PtCAD enzyme activity with a mixture of coniferaldehyde and sinapaldehyde (HPLC-MS); type: biochemical
Source text: A guaiacyl pathway gene encoding coniferyl alcohol dehydrogenase (CAD, FIG. 1) from Populus tremuloides (GenBank #AF217957) was first cloned. This cDNA was designated as PtCAD (GenBank #AF217957). E. coli-expressed recombinant PtCAD protein was characterized for its catalytic activity with coniferaldehyde and sinapaldehyde. Because monolignol biosynthetic pathway intermediates are present together in lignifying tissues (Osakabe et al., 1999; Li et al. 2000), the PtCAD enzyme activity with a mixture of coniferaldehyde and sinapaldehyde was assayed. As shown in FIG. 5 (a) and (c), the reaction mixture was separated by HPLC after the enzyme reaction. […]
An aliquot of 100 μL of reaction mixture was injected directly onto a Supelcosil LC-ABZ column (15 cm×4.6 mm×5 μm; Supelco, Bellefonte, Pa.) with automatic sample injection and separated isocratically with a Hewlett-Packard (HP) 1100 liquid chromatography system at 40° C. and a flow rate of 0.25 mL/min. […] The reaction products were identified and confirmed by comparing the ion fragmentation patterns of the product and the authentic standard in MS scanning mode at 70 V. The product quantity and Km, Vmax, kcat, and apparent inhibition constant (Ki) values (means±SE) were determined as described (Osakabe et al., 1999; Li et al., 2000). […]

## COc1cc(/C=C/C=O)ccc1O [Coniferaldehyde]
[1]
  Ki: 1.7 µM
[2]
  reaction of PtCAD with the substrate in a mixture: Only coniferyl alcohol was formed
